Patent publication US7981903B2, “2-[2-{phenylamino}-1H-pyrrolo[2,3-D]pyrimidin-4-yl)amino] benzamide derivatives as IGF-1R inhibitors for the treatment of cancer” (GlaxoSmithKline LLC, priority 2007, dated 2011)

Columns and labels:
ALK = ALK (Homo sapiens, UniProt Q9UM73); assay: ALK enzyme assay (HTRF); format: biochemical; conditions: 0.25 nM ALK, 15.0 μM ATP, values given as pIC50 category
Procedure, shortened: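 Isolated ALK phosphorylates a biotinylated tyrosine peptide, 120 min at 20° C; anti-phosphotyrosine Eu-cryptate/streptavidin-XL665 HTRF read after 60 min with EDTA-containing detection mix.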

Colo205 = assay: Inhibition of cell proliferation (CellTiter-Glo or InCell analyzer), Colo205; format: cell-based; conditions: Homo sapiens, COLO 205, 72 h / 3 days, values given as IC50 category
Procedure, shortened: In one

[1] = biological target: T1, NIH-3T3 cells overexpressing human IGF-1R (Homo sapiens, UniProt P08069); assay: IGF-1R cellular autophosphorylation (DELFIA); format: cell-based
T1 construct: expressed in transfected cells; host or cells: NIH-3T3 (mouse fibroblasts)
T1 sequence (P08069 31-1367): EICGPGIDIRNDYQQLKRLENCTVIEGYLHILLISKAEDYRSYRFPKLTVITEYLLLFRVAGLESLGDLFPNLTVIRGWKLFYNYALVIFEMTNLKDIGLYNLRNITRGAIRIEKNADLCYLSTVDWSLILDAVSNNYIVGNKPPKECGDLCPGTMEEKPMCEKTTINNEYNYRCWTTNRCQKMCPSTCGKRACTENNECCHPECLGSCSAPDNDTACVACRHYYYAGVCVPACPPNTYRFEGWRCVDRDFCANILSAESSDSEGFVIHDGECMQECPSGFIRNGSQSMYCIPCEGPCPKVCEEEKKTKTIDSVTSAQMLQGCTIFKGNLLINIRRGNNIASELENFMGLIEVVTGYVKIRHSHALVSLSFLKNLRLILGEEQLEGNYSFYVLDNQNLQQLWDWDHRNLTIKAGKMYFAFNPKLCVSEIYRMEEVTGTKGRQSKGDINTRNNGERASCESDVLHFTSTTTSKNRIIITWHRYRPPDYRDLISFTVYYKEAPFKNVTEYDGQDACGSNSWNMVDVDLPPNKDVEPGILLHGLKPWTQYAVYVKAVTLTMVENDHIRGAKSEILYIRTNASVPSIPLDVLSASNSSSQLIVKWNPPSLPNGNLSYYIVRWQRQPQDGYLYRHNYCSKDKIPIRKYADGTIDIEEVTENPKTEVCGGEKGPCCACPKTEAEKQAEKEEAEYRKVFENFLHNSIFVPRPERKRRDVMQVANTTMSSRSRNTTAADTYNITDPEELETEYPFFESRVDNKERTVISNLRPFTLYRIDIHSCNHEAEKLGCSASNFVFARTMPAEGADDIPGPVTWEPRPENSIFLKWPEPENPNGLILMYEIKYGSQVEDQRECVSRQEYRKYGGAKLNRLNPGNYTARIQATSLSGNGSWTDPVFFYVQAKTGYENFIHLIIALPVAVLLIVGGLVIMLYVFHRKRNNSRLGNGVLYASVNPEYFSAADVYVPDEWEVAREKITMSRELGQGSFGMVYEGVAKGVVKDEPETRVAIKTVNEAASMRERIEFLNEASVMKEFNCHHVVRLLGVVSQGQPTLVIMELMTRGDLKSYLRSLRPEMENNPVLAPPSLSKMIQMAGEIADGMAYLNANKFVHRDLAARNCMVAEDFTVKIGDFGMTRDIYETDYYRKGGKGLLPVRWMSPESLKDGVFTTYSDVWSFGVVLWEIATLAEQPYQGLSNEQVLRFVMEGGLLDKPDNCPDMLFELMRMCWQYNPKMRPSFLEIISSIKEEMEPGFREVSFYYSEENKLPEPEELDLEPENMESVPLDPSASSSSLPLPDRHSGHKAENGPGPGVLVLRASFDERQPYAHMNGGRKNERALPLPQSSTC
Procedure, shortened: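 Receptor autophosphorylation measured by DELFIA, capturing IGF-1R or IRβ and detecting with europium anti-pTyr, reported as percent of IGF-1- or insulin-stimulated signal. Compounds (30 uM to 1.5 nM) added 2 h before ligand, then 15 min stimulation (IGF-1 30 ng/ml or insulin 3 ug/ml).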

NCI-H929 = assay: Inhibition of cell proliferation (CellTiter-Glo or InCell analyzer), NCI-H929; format: cell-based; conditions: Homo sapiens, 72 h / 3 days, values given as IC50 category
Procedure, shortened: In one

ALK, sequence (Q9UM73 19-1620): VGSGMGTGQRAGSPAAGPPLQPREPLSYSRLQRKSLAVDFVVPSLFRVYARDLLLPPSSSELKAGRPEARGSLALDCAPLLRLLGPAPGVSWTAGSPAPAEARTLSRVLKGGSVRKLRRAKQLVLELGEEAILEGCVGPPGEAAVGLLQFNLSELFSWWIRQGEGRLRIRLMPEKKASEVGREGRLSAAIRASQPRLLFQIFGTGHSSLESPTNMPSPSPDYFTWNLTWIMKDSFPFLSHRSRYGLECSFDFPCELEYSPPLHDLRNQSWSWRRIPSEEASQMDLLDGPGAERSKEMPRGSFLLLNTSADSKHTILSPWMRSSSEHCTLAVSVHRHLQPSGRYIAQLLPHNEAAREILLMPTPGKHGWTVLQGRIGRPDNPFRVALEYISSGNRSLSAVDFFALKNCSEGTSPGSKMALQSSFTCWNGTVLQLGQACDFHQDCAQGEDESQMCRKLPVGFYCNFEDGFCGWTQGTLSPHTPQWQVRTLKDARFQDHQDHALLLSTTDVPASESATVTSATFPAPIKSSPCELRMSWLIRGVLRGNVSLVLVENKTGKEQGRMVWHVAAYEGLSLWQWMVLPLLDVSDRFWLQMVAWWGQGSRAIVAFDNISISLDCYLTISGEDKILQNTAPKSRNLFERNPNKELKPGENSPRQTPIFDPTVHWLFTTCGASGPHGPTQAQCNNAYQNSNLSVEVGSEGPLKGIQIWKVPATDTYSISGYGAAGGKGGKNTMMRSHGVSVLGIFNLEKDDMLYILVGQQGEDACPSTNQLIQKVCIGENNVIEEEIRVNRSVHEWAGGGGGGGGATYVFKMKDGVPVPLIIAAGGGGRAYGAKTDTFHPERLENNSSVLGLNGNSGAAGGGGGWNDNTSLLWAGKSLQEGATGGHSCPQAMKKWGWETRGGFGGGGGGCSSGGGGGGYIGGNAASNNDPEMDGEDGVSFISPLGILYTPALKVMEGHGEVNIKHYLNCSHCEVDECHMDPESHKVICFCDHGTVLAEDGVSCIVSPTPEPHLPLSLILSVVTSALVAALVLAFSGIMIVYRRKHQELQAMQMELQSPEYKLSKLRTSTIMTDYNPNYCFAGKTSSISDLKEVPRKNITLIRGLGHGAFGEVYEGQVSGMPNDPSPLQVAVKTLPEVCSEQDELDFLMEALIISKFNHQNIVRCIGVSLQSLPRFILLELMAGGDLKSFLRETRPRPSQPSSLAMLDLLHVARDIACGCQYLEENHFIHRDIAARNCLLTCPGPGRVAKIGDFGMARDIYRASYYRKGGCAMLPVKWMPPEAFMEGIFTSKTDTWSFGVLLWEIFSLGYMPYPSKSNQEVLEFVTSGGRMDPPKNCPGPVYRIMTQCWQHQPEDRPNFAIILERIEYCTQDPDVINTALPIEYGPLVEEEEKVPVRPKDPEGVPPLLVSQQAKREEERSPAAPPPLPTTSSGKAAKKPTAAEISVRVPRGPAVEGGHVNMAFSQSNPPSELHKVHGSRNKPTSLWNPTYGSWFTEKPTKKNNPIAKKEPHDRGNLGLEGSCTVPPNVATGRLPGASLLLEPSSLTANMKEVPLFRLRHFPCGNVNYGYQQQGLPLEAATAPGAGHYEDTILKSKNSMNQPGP

Compound | IC50 (ALK) | IC50 (Colo205) | IC50 [1] | IC50 (NCI-H929)
CCCN1CCC=C(c2ccc(Nc3nc(Nc4ccccc4C(N)=O)c4cc[nH]c4n3)c(OC)c2)C1 [Example 2, 2-[(2-{[2-(methyloxy)-4-(1-propyl-1,2,5,6-tetrahydro-3-pyridinyl)phenyl]amino}-1H-pyrrolo[2,3-d]pyrimidin-4-yl)amino]benzamide] | 0.251 to 1 nM | < 250 nM | 100 to 500 nM | < 250 nM
CCCN1CCCC(c2ccc(Nc3nc(Nc4ccccc4C(N)=O)c4cc[nH]c4n3)c(OC)c2)C1 (stereo not shown) [Example 3, 2-[(2-{[2-(methyloxy)-4-(1-propyl-3-piperidinyl)phenyl]amino}-1H-pyrrolo[2,3-d]pyrimidin-4-yl)amino]benzamide] | 0.251 to 1 nM | < 250 nM | < 100 nM | 
COc1cc(N2CCN(C(C)C)CC2)ccc1Nc1nc(Nc2ccccc2C(N)=O)c2cc[nH]c2n1 [Example 7, 2-[(2-{[4-[4-(1-methylethyl)-1-piperazinyl]-2-(methyloxy)phenyl]amino}-1H-pyrrolo[2,3-d]pyrimidin-4-yl)amino]benzamide] | 0.251 to 1 nM | < 250 nM | < 100 nM | < 250 nM
COc1ccc(NC(=O)CN(C)C)cc1Nc1nc(Nc2ccccc2C(N)=O)c2cc[nH]c2n1 [Example 15, 2-[(2-{[5-[(N,N-dimethylglycyl)amino]-2-(methyloxy)phenyl]amino}-1H-pyrrolo[2,3-d]pyrimidin-4-yl)amino]benzamide] | 0.251 to 1 nM | < 250 nM | < 100 nM | 
CN(C)CC(=O)Nc1ccc(OC(F)(F)F)c(Nc2nc(Nc3ccccc3C(N)=O)c3cc[nH]c3n2)c1 [Example 16, 2-{[2-({5-[(N,N-dimethylglycyl)amino]-2-[(trifluoromethyl)oxy]phenyl}amino)-1H-pyrrolo[2,3-d]pyrimidin-4-yl]amino}benzamide] | 0.251 to 1 nM | 250 to 1000 nM | 100 to 500 nM | 
CN(C)CC(=O)Nc1ccc(F)c(Nc2nc(Nc3ccccc3C(N)=O)c3cc[nH]c3n2)c1 [Example 17, 2-{[2-({5-[(N,N-dimethylglycyl)amino]-2-fluorophenyl}amino)-1H-pyrrolo[2,3-d]pyrimidin-4-yl]amino}benzamide] | 0.251 to 1 nM | < 250 nM | < 100 nM | 
COc1ccc(C(N)=O)c(Nc2nc(Nc3ccc(N4CCOC[C@@H]4C)cc3OC)nc3[nH]ccc23)c1 [Example 39, 2-[(2-{[4-[(3S)-3-methyl-4-morpholinyl]-2-(methyloxy)phenyl]amino}-1H-pyrrolo[2,3-d]pyrimidin-4-yl)amino]-4-(methyloxy)benzamide] | 1.26 to 3.98 nM | 250 to 1000 nM | 100 to 500 nM | 
COc1cc2c(cc1Nc1nc(Nc3cccc(F)c3C(N)=O)c3cc[nH]c3n1)N(C(=O)CN(C)C)CC2 [Example 53, 2-[(2-{[1-(N,N-dimethylglycyl)-5-(methyloxy)-2,3-dihydro-1H-indol-6-yl]amino}-1H-pyrrolo[2,3-d]pyrimidin-4-yl)amino]-6-fluorobenzamide] | 0.251 to 1 nM | < 250 nM | < 100 nM | < 250 nM
CCCN1CCC=C(c2ccc(Nc3nc(Nc4ccc(F)cc4C(N)=O)c4cc[nH]c4n3)c(OC)c2)C1 [Example 54, 5-fluoro-2-[(2-{[2-(methyloxy)-4-(1-propyl-1,2,5,6-tetrahydro-3-pyridinyl)phenyl]amino}-1H-pyrrolo[2,3-d]pyrimidin-4-yl)amino]benzamide] | 0.251 to 1 nM | < 250 nM | 100 to 500 nM | 
COc1cc(C2CCN(C(C)C)CC2)ccc1Nc1nc(Nc2ccc(F)cc2C(N)=O)c2cc[nH]c2n1 [Example 58, 5-fluoro-2-[(2-{[4-[1-(1-methylethyl)-4-piperidinyl]-2-(methyloxy)phenyl]amino}-1H-pyrrolo[2,3-d]pyrimidin-4-yl)amino]benzamide] | 0.251 to 1 nM | < 250 nM | < 100 nM | < 250 nM
COc1cc(N2CCC(N3CCOCC3)CC2)ccc1Nc1nc(Nc2cc(F)ccc2C(N)=O)c2cc[nH]c2n1 [Example 78, 4-fluoro-2-{[2-({2-(methyloxy)-4-[4-(4-morpholinyl)-1-piperidinyl]phenyl}amino)-1H-pyrrolo[2,3-d]pyrimidin-4-yl]amino}benzamide] | 0.251 to 1 nM | 250 to 1000 nM | < 100 nM | 
COc1cc(N2CCOC[C@@H]2C)ccc1Nc1nc(Nc2cc(F)ccc2C(N)=O)c2cc[nH]c2n1 [Example 84, 4-fluoro-2-[(2-{[4-[(3S)-3-methyl-4-morpholinyl]-2-(methyloxy)phenyl]amino}-1H-pyrrolo[2,3-d]pyrimidin-4-yl)amino]benzamide] | 1.26 to 3.98 nM | < 250 nM | < 100 nM | 
COc1ccc(OC[C@@H](O)CN(C)C)cc1Nc1nc(Nc2cc(F)ccc2C(N)=O)c2cc[nH]c2n1 [Example 86, 2-[(2-{[5-{[(2S)-3-(dimethylamino)-2-hydroxypropyl]oxy}-2-(methyloxy)phenyl]amino}-1H-pyrrolo[2,3-d]pyrimidin-4-yl)amino]-4-fluorobenzamide] | 0.251 to 1 nM | < 250 nM | 100 to 500 nM | 
COc1cc(N2CCN(C(C)C)CC2)ccc1Nc1nc(Nc2cc(F)cc(F)c2C(N)=O)c2cc[nH]c2n1 [Example 89, 2,4-difluoro-6-[(2-{[4-[4-(1-methylethyl)-1-piperazinyl]-2-(methyloxy)phenyl]amino}-1H-pyrrolo[2,3-d]pyrimidin-4-yl)amino]benzamide] | 0.251 to 1 nM | 250 to 1000 nM | < 100 nM | < 250 nM
COc1cc(N2CCN(C(C)C)CC2)c(C)cc1Nc1nc(Nc2cc(F)cc(F)c2C(N)=O)c2cc[nH]c2n1 [Example 91, 2,4-difluoro-6-[(2-{[5-methyl-4-[4-(1-methylethyl)-1-piperazinyl]-2-(methyloxy)phenyl]amino}-1H-pyrrolo[2,3-d]pyrimidin-4-yl)amino]benzamide] | 0.251 to 1 nM | < 250 nM | < 100 nM | < 250 nM
CCCN1CCC(c2ccc(Nc3nc(Nc4cc(F)cc(F)c4C(N)=O)c4cc[nH]c4n3)c(OC)c2)CC1 [Example 92, 2,4-difluoro-6-[(2-{[2-(methyloxy)-4-(1-propyl-4-piperidinyl)phenyl]amino}-1H-pyrrolo[2,3-d]pyrimidin-4-yl)amino]benzamide] | 0.251 to 1 nM | < 250 nM | < 100 nM | < 250 nM
COc1ccc(OC[C@@H](O)CN2CCCC2)cc1Nc1nc(Nc2cc(F)c(F)cc2C(N)=O)c2cc[nH]c2n1 [Example 107, 4,5-difluoro-2-[(2-{[5-{[(2S)-2-hydroxy-3-(1-pyrrolidinyl)propyl]oxy}-2-(methyloxy)phenyl]amino}-1H-pyrrolo[2,3-d]pyrimidin-4-yl)amino]benzamide] | 1.26 to 3.98 nM | 250 to 1000 nM | 100 to 500 nM | 
COc1cc2c(cc1Nc1nc(Nc3cccc(F)c3C(N)=O)c3cc[nH]c3n1)N(CCN(C)C)CC2 [Example 117, 2-[(2-{[1-[2-(dimethylamino)ethyl]-5-(methyloxy)-2,3-dihydro-1H-indol-6-yl]amino}-1H-pyrrolo[2,3-d]pyrimidin-4-yl)amino]-6-fluorobenzamide] | 5.01 to 200 nM | > 1000 nM | > 500 nM | 250 to 1000 nM
COc1cc2c(cc1Nc1nc(Nc3cccc(F)c3C(N)=O)c3cc[nH]c3n1)N(C(=O)CCN(C)C)CC2 [Example 118, 2-[(2-{[1-(N,N-dimethyl-b-alanyl)-5-(methyloxy)-2,3-dihydro-1H-indol-6-yl]amino}-1H-pyrrolo[2,3-d]pyrimidin-4-yl)amino]-6-fluorobenzamide] | 5.01 to 200 nM | 250 to 1000 nM | 100 to 500 nM | < 250 nM
COc1cc2c(cc1Nc1nc(Nc3cc(Cl)cc(F)c3C(N)=O)c3cc[nH]c3n1)N(C(=O)CN(C)C)CC2 [Example 119, 4-chloro-2-[(2-{[1-(N,N-dimethylglycyl)-5-(methyloxy)-2,3-dihydro-1H-indol-6-yl]amino}-1H-pyrrolo[2,3-d]pyrimidin-4-yl)amino]-6-fluorobenzamide] | 1.26 to 3.98 nM | 250 to 1000 nM | < 100 nM | < 250 nM
COc1cc2c(cc1Nc1nc(Nc3cccc(F)c3C(N)=O)c3cc[nH]c3n1)CN(C)CC2 [Example 121, 2-fluoro-6-[(2-{[2-methyl-6-(methyloxy)-1,2,3,4-tetrahydro-7-isoquinolinyl]amino}-1H-pyrrolo[2,3-d]pyrimidin-4-yl)amino]benzamide] | 1.26 to 3.98 nM | 250 to 1000 nM | 100 to 500 nM | < 250 nM
CCCN1CCC(N2CCc3cc(OC)c(Nc4nc(Nc5cccc(F)c5C(N)=O)c5cc[nH]c5n4)cc3C2)CC1 [Example 122, 2-fluoro-6-[(2-{[6-(methyloxy)-2-(1-propyl-4-piperidinyl)-1,2,3,4-tetrahydro-7-isoquinolinyl]amino}-1H-pyrrolo[2,3-d]pyrimidin-4-yl)amino]benzamide] | 5.01 to 200 nM | > 1000 nM | 100 to 500 nM | < 250 nM
COc1cc2c(cc1Nc1nc(Nc3cc4ccccc4cc3C(N)=O)c3cc[nH]c3n1)N(C(=O)CN(C)C)CC2 [Example 124, 3-[(2-{[1-(N,N-dimethylglycyl)-5-(methyloxy)-2,3-dihydro-1H-indol-6-yl]amino}-1H-pyrrolo[2,3-d]pyrimidin-4-yl)amino]-2-naphthalenecarboxamide] | 1.26 to 3.98 nM | < 250 nM | < 100 nM | < 250 nM
